# Source: patent US10765114B2, “4-amino-6-(pyridyl and 2-substitutedphenyl)-picolinates and 6-amino-2-(pyridyl and 2-substitutedphenyl)-pyrimidine-4-carboxylates and their use as herbicides” (Dow AgroSciences LLC, priority 2013, dated 2020)
# Like-named read-outs stand apart in the source and are kept apart here.
# Tests used:
# [1] = tested on: Key Grass and Sedge Weeds as well as Grass Crops; experiment: Post-Emergent Test II (Table 6); assay type: in vivo; conditions: post-emergence, 336 h, 14 days after application; for pest or weed control at 70 g/ha: 70 g ai/ha; for pest or weed control at 140 g/ha: 140 g ai/ha
# How it was run: (§1)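 Visual injury ratings (0 = no injury, 100 = complete kill) were taken 14 days after treatment relative to untreated plants. Seedlings at the first or second true leaf stage received an overhead spray at 187 L/ha, and solvent-blank sprayed plants served as controls.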
# [2] = tested on: Key Broadleaf Weed and Crop Species; experiment: Post-Emergent Test II (Table 5); assay type: in vivo; conditions: post-emergence, 336 h; for pest or weed control at 70 g/ha: application rate 70 (kg ai/ha; footnote: g ai/ha); for pest or weed control at 140 g/ha: application rate 140 (kg ai/ha; footnote: g ai/ha)
# How it was run: as §1
# [3] = CYPSS, read-out: Visual Growth Reduction (%) 14 Days After Application CYPSS
# [4] = DIGSA: crabgrass (Digitaria sanguinalis), read-out: Visual Growth Reduction (%) 14 Days After Application DIGSA
# [5] = ECHSS, read-out: Visual Growth Reduction (%) 14 Days After Application ECHSS
# [6] = ORYSS (crop), read-out: Visual Growth Reduction (%) 14 Days After Application ORYSS
# [7] = SETFA: giant foxtail (Setaria faberi), read-out: Visual Growth Reduction (%) 14 Days After Application SETFA
# [8] = SORVU: grain sorghum (Sorghum vulgare), read-out: Visual Growth Reduction (%) 14 Days After Application SORVU
# [9] = TRZSS (crop), read-out: Visual Growth Reduction (%) 14 Days After Application TRZSS
# [10] = ZEAMX: maize, corn (Zea mays), read-out: Visual Growth Reduction (%) 14 Days After Application ZEAMX
# [11] = Abutilon theophrasti, ABUTH: velvetleaf (Abutilon theophrasti), read-out: Visual Growth Reduction (%) 14 Days After Application ABUTH
# [12] = Amaranthus retroflexus, AMARE: redroot pigweed (Amaranthus retroflexus), read-out: Visual Growth Reduction (%) 14 Days After Application AMARE
# [13] = Brassica napus, BRSSS: oilseed rape, canola (Brassica napus), read-out: Visual Growth Reduction (%) 14 Days After Application BRSSS
# [14] = Chenopodium album, CHEAL: lambsquarters (Chenopodium album), read-out: Visual Growth Reduction (%) 14 Days After Application CHEAL
# [15] = Euphorbia heterophylla, EPHHL: wild poinsettia (Euphorbia heterophylla), read-out: Visual Growth Reduction (%) 14 Days After Application EPHHL
# [16] = Helianthus annuus, HELAN: sunflower (Helianthus annuus), read-out: Visual Growth Reduction (%) 14 Days After Application HELAN
# [17] = Viola tricolor, VIOTR: wild pansy (Viola tricolor), read-out: Visual Growth Reduction (%) 14 Days After Application VIOTR
Structure (SMILES),"pest or weed control at 70 g/ha [1, 3] [%]","pest or weed control at 140 g/ha [1, 3] [%]","pest or weed control at 70 g/ha [1, 4] [%]","pest or weed control at 140 g/ha [1, 4] [%]","pest or weed control at 70 g/ha [1, 5] [%]","pest or weed control at 140 g/ha [1, 5] [%]","pest or weed control at 70 g/ha [1, 6] [%]","pest or weed control at 140 g/ha [1, 6] [%]","pest or weed control at 70 g/ha [1, 7] [%]","pest or weed control at 140 g/ha [1, 7] [%]","pest or weed control at 70 g/ha [1, 8] [%]","pest or weed control at 140 g/ha [1, 8] [%]","pest or weed control at 70 g/ha [1, 9] [%]","pest or weed control at 140 g/ha [1, 9] [%]","pest or weed control at 70 g/ha [1, 10] [%]","pest or weed control at 140 g/ha [1, 10] [%]","pest or weed control at 70 g/ha [2, 11] [%]","pest or weed control at 140 g/ha [2, 11] [%]","pest or weed control at 70 g/ha [2, 12] [%]","pest or weed control at 140 g/ha [2, 12] [%]",also measured
COc1c(N)nc(-c2ccc(Cl)c(F)c2C)nc1C(=O)O [Compound 64],0 to 29,0 to 29,0 to 29,0 to 29,0 to 29,0 to 29,0 to 29,0 to 29,0 to 29,0 to 29,0 to 29,0 to 29,0 to 29,0 to 29,0 to 29,0 to 29,0 to 29,0 to 29,60 to 74,75 to 84,"pest or weed control at 70 g/ha [2, 13]: 0 to 29%; pest or weed control at 140 g/ha [2, 13]: 0 to 29%; pest or weed control at 70 g/ha [2, 14]: 95 to 100%; pest or weed control at 140 g/ha [2, 14]: 95 to 100%; pest or weed control at 70 g/ha [2, 15]: 0 to 29%; pest or weed control at 140 g/ha [2, 15]: 0 to 29%; pest or weed control at 70 g/ha [2, 16]: 45 to 59%; pest or weed control at 140 g/ha [2, 16]: 85 to 94%; pest or weed control at 70 g/ha [2, 17]: 0 to 29%; pest or weed control at 140 g/ha [2, 17]: 0 to 29%; melting point: 140 to 143 °C"
"Nc1c(F)c(-c2ccc(C3CC3)nc2)nc(C(=O)O)c1Cl [Compound 36, 4-amino-5-chloro-6′-cyclopropyl-3-fluoro-[2,3′-bipyridine]-6-carboxylic acid]",95 to 100,95 to 100,60 to 74,75 to 84,85 to 94,85 to 94,0 to 29,0 to 29,95 to 100,95 to 100,60 to 74,60 to 74,30 to 44,45 to 59,95 to 100,95 to 100,85 to 94,95 to 100,95 to 100,95 to 100,"pest or weed control at 70 g/ha [2, 13]: 85 to 94%; pest or weed control at 140 g/ha [2, 13]: 95 to 100%; pest or weed control at 70 g/ha [2, 14]: 95 to 100%; pest or weed control at 140 g/ha [2, 14]: 95 to 100%; pest or weed control at 70 g/ha [2, 15]: 95 to 100%; pest or weed control at 140 g/ha [2, 15]: 95 to 100%; pest or weed control at 70 g/ha [2, 16]: 95 to 100%; pest or weed control at 140 g/ha [2, 16]: 95 to 100%; pest or weed control at 70 g/ha [2, 17]: 0 to 29%; pest or weed control at 140 g/ha [2, 17]: 0 to 29%; melting point: 260 to 265 °C (dec.)"
COC(=O)c1nc(-c2ccc(OC(F)F)nc2)c(F)c(N)c1Cl [Compound 71],0 to 29,45 to 59,75 to 84,60 to 74,60 to 74,75 to 84,0 to 29,0 to 29,75 to 84,85 to 94,60 to 74,75 to 84,45 to 59,45 to 59,0 to 29,60 to 74,85 to 94,85 to 94,0 to 29,0 to 29,"pest or weed control at 70 g/ha [2, 13]: 30 to 44%; pest or weed control at 140 g/ha [2, 13]: 45 to 59%; pest or weed control at 70 g/ha [2, 14]: 85 to 94%; pest or weed control at 140 g/ha [2, 14]: 85 to 94%; pest or weed control at 70 g/ha [2, 15]: 95 to 100%; pest or weed control at 140 g/ha [2, 15]: 95 to 100%; pest or weed control at 70 g/ha [2, 16]: 85 to 94%; pest or weed control at 140 g/ha [2, 16]: 85 to 94%; pest or weed control at 70 g/ha [2, 17]: 0 to 29%; pest or weed control at 140 g/ha [2, 17]: 0 to 29%; melting point: 134 to 136 °C"
COC(=O)c1nc(-c2ccc(Cl)nc2OC)cc(N)c1Cl [Compound 48],0 to 29,0 to 29,0 to 29,0 to 29,0 to 29,0 to 29,0 to 29,0 to 29,0 to 29,0 to 29,0 to 29,0 to 29,0 to 29,0 to 29,0 to 29,45 to 59,85 to 94,85 to 94,95 to 100,95 to 100,"pest or weed control at 70 g/ha [2, 13]: 0 to 29%; pest or weed control at 140 g/ha [2, 13]: 45 to 59%; pest or weed control at 70 g/ha [2, 14]: 95 to 100%; pest or weed control at 140 g/ha [2, 14]: 95 to 100%; pest or weed control at 70 g/ha [2, 15]: 0 to 29%; pest or weed control at 140 g/ha [2, 15]: 0 to 29%; pest or weed control at 70 g/ha [2, 16]: 85 to 94%; pest or weed control at 140 g/ha [2, 16]: 85 to 94%; pest or weed control at 70 g/ha [2, 17]: 45 to 59%; pest or weed control at 140 g/ha [2, 17]: 60 to 74%; melting point: 109 to 111 °C"
